pEC50: −log10 of the molar value.
Columns and labels:
[1] = system: RAW 264.7 cells; assay: Cell count (proliferation/viability); assay type: cell-based, mouse; details: RAW 264.7, 24 hours, doses of 3 μM and higher
Experimental: Cell lines were seeded in 24-well culture dishes at a density of 20,000/cm^2 and were either left untreated (controls) or treated with L- or DL-SFN at the indicated concentrations for up to 48 hours. Thereafter, cells were detached with 0.001% pronase E, and the number of viable cells was assessed with Casy cell counter (Schaerfe Systems, Reutlingen, Germany). Each experiment was performed in quadruplicate, and experiments were carried out twice. For long term experiments, cell number was determined using DNA amount as surrogate. Cell layers were washed with PBS and fixed for 20 minutes with 4% PFA. Thereafter, Hoechst 33258 dye (Polysciences, Warrington, Pa., USA) was added (1 μg/mL), and, after an incubation of 15 minutes at room temperature, the fluorescence was measured (excitation 360, emission 465 nm). The amount of DNA was estimated using a standard curve prepared from calf thymus DNA (Roche).

[2] = system: BMSCs; assay: ECM mineralization by Alizarin Red stain; assay type: cell-based, mouse; details: long-term treatment in osteogenic media
Experimental: Mouse bone marrow mesenchymal stem cells were isolated from aseptically dissected long bones of 6-week old C57BL/6 mice (Himberg, Austria). The marrow cavities were flushed with sterile medium using a 25-gauge needle, and the culture was established in α-MEM supplemented with 10% FCS and […]. After 48 hours of culture at 5% CO2 and 37° C., the non-adherent cells were removed by gentle rinsing with PBS. At confluence, cells were harvested and seeded at a density of 3,000/cm^2 for cell experiments. For osteogenic differentiation, cells were cultured in α-MEM supplemented with 10% FBS, […], 100 nM dexamethasone, 10 mM β-glycerophosphate, and 50 μg/mL ascorbic acid with or without L- or DL-SFN. Culture medium was renewed twice a week, and cells were cultured for the periods indicated in the result section.
Calvariae from 2 to 3-day-old and from 7-week old C57BL/6 mice were dissected aseptically. […] Thereafter, one part of the calvariae were fixed for 1 hour in 4% para-formaldehyde (PFA), and mineralization was measured by Alizarin Red S stain (Sigma-Aldrich). […] Alizarin Red S absorbance was measured at 562 nm in a multi-plate reader (Tecan, Maennedorf, Switzerland) and normalized to total protein amount measured by bicinchoninic acid assay (Thermo Fisher Scientific, Waltham, Mass., USA). […]

[3] = system: neonatal calvarial explants; assay: ECM mineralization by Alizarin Red stain in calvarial explants; assay type: cell-based, mouse; details: newborn calvarial explants, 3 μM
Experimental: Calvariae from 2 to 3-day-old and from 7-week old C57BL/6 mice were dissected aseptically. The calvarial bone explants were cultured in 48-well plates in α-MEM (Biochrom) containing 10% FCS (Biochrom), 50 μg/mL ascorbic acid (Sigma-Aldrich), 5 mM β-glycerophosphate (Sigma-Aldrich), and 10 μg/mL gentamicin (Sigma-Aldrich). […] Thereafter, one part of the calvariae were fixed for 1 hour in 4% para-formaldehyde (PFA), and mineralization was measured by Alizarin Red S stain (Sigma-Aldrich). For this purpose, Alizarin Red S dye was extracted using 10% cetylpyridinium chloride (CPC) in 10 mM sodiumphosphate (pH=7.0) for 45 minutes at room temperature. Alizarin Red S absorbance was measured at 562 nm in a multi-plate reader (Tecan, Maennedorf, Switzerland) and normalized to total protein amount measured by bicinchoninic acid assay (Thermo Fisher Scientific, Waltham, Mass., USA). From the other part of the calvariae, total RNA was extracted.

[4] = system: MC3T3-E1 cells; assay: Cell metabolic activity (EZ4U, MTT similar assay); assay type: cell-based, mouse; details: 24 hours of treatment, read-out: half-maximal effective concentration (EC50), cell metabolic activity
Experimental: (§1) To assess cell metabolic activity, a commercially available, MTT similar assay (EZ4U; Biomedica, Vienna, Austria) was used. For this purpose, the cell lines were incubated with increasing concentrations of L- or DL-SFN.

[5] = system: RAW 264.7 cells; assay: Cell metabolic activity (EZ4U, MTT similar assay); assay type: cell-based, mouse; details: read-out: half-maximal effective concentration (EC50), cell metabolic activity
Experimental: as §1

[6] = system: MLO-Y4 cells; assay: Cell metabolic activity (EZ4U, MTT similar assay); assay type: cell-based, mouse; details: 24 hours of treatment, read-out: half-maximal effective concentration (EC50), cell metabolic activity
Experimental: as §1

[7] = system: female C57BL/6 mice; assay: microCT of femur after 5 weeks of daily GSK126 (in vivo Ezh2 inhibition); parameters: species or system mouse; details: for Ct. TV: cortical bone; for Ct. TV / Ct. Ar / Ct. BV / Ct. Mat.M.Dn / Ct. Th / Ec. Ar / Ps.Ar: femoral midshaft; for Ct. TV / Tb.N / Tb.Sp / Tb.Th / Ct. Ar / Ct. BV / Ct. Mat.M.Dn / Ct. Th / Ec. Ar / Ps.Ar: 5 weeks, mean; for Tb.N / Tb.Sp / Tb.Th: distal femur metaphysis
Experimental: Female C57BL/6 mice (Harlan Laboratories) were maintained on a 12-hour light/12-hour dark cycle and were permitted ad libitum access to food and water. For efficacy studies, 6-week old mice received daily intraperitoneal (IP) injections of GSK126 at 15 mg/kg, 50 mg/kg, or vehicle (DMSO) in 20% Captisol adjusted to pH 4-4.5 with IN acetic acid (McCabe et al., Nature, 492:108-112 (2012)) for 5 weeks.
The dosage, delivery schedule, and administration route were similar to those described elsewhere (McCabe et al., Nature, 492:108-112 (2012)). Animals were weighed daily. To label mineralizing bone surfaces, mice received subcutaneous injections of calcein (10 mg/kg) 5 days and 24 hours before euthanasia.
The quantitative analysis of the femoral metaphysis was performed using a vivaCT 40 scanner (SCANCO Medical AG) with the following parameters: E=55 kVp, 1=145 μA, integration time=300 ms. A 10.5 μm voxel size using a threshold of 220 was applied to all scans at high resolution. Using two-dimensional data from scanned slices, 3D analysis was generated and used to calculate morphometric parameters defining trabecular bone mass and micro-architecture, including Bone Volume/Tissue volume (BV/TV), trabecular number (Tb.N.), trabecular thickness (Tb.Th.), trabecular spacing (Tb.Sp.), and the structure model index (SMI), an indicator of plate-like versus rod-like trabecular architecture.

Compound: C[S+]([O-])CCCCN=C=S (racemic) [DL-SFN]
- number of viable cells [1]: reduced
- ECM mineralization [2]: significantly increased
- ECM mineralization [3]: significantly increased
- pEC50 [4]: ~4.89
- pEC50 [5]: ~5.22
- pEC50 [6]: ~5.22

Compound: CC[C@H](C)n1cc(C)c2c(C(=O)NCc3c(C)cc(C)[nH]c3=O)cc(-c3ccc(N4CCNCC4)nc3)cc21 [GSK126, N-[(1,2-dihydro-4,6-dimethyl-2-oxo-3-pyridinyl)methyl]-3-methyl-1-[(1S)-1-methylpropyl]-6-[6-(1-piperazinyl)-3-pyridinyl]-1H-indole-4-carboxamide]
- cortical bone parameters ([7]; adult mice, 50 mg/kg daily for 5 weeks, in words): increased
- Ct. TV ([7]; 15 mg/kg): 1.184 mm^3
- Ct. TV ([7]; 50 mg/kg): 1.243 mm^3
- Tb.N ([7]; 15 mg/kg): 3.850 mm^−1
- Tb.Sp ([7]; 15 mg/kg): 0.267 mm
- Tb.Th ([7]; 15 mg/kg): 0.040 mm
- Tb.N ([7]; 50 mg/kg): 4.053 mm^−1
- Tb.Sp ([7]; 50 mg/kg): 0.252 mm
- Tb.Th ([7]; 50 mg/kg): 0.043 mm
- Ct. Ar ([7]; 15 mg/kg): 0.719 mm^2
- Ct. BV ([7]; 15 mg/kg): 0.509 mm^3
- Ct. Mat.M.Dn ([7]; 15 mg/kg): 1235 mgHA/cm^3
- Ct. Th ([7]; 15 mg/kg): 0.171 mm
- Ec. Ar ([7]; 15 mg/kg): 0.955 mm^2
- Ps.Ar ([7]; 15 mg/kg): 1.675 mm^2
- Ct. Ar ([7]; 50 mg/kg): 0.753 mm^2
- Ct. BV ([7]; 50 mg/kg): 0.532 mm^3
- Ct. Mat.M.Dn ([7]; 50 mg/kg): 1238 mgHA/cm^3
- Ct. Th ([7]; 50 mg/kg): 0.175 mm
- Ec. Ar ([7]; 50 mg/kg): 1.006 mm^2
- Ps.Ar ([7]; 50 mg/kg): 1.758 mm^2

Compound: C[S+]([O-])CCCCN=C=S [L-SFN]
- number of viable cells [1]: reduced
- ECM mineralization [2]: significantly increased
- ECM mineralization [3]: significantly increased
- pEC50 [4]: ~4.32
- pEC50 [5]: ~5.00
- pEC50 [6]: ~4.96

Source: patent US20180133211A1, “METHODS AND MATERIALS FOR PROMOTING BONE FORMATION” (Mayo Foundation for Medical Education and Research, priority 2015, published 2018)
